{"source": "paper doi:10.1101/2025.04.25.650653", "about": "“Hierarchical small molecule inhibition of MYST acetyltransferases” (bioRxiv, 2025)", "key": {"[1]": {"test_system": "proteins captured by H3K14-CoA resin from HeLa nuclear extracts", "test": "Proteome-wide competitive chemoproteomic profiling (H3K14-CoA beads, TMT LC-MS/MS)", "format": "binding", "details": "for Log2FC PF9363-100nM / PF9363-0nM / Log2FC PF9363-1000nM / PF9363-0nM / Log2FC PF9363-10000nM / PF9363-0nM: H3K14-CoA beads, TMT"}, "[2]": {"test_system": "H3K14Ac (KAT7)", "test": "Histone biomarker bottom-up LC-MS/MS, MCF-7", "format": "cell-based", "details": "for Ratio, H3_9_17 K9me1K14ac / Ratio, H3_9_17 K9me2K14ac / Ratio, H3_9_17 K14ac: Replicates 1-3"}, "[3]": {"test_system": "H4K16Ac (KAT8)", "test": "Histone biomarker bottom-up LC-MS/MS, MCF-7", "format": "cell-based", "details": "for Ratio, H4_4_17 K16ac: Replicates 1-3"}, "[4]": {"test_system": "NCI-60 cell line panel", "test": "NCI-60 cell line screen, sulforhodamine B growth inhibition", "format": "cell-based, human", "details": "48 h"}, "[5]": {"test_system": "BT-549 cells", "test": "NCI-60 cell line screen, sulforhodamine B growth inhibition", "format": "cell-based, human", "details": "BT-549, 10 and 100 μM, 48 h", "description": "As a comparator we used growth inhibition caused by treatment of cells with CPI-1612,[45], [46] a potent inhibitor of the EP300/CREBBP (KAT3A/B), widely regarded as the master regulator of protein acetylation.\nFigure 6. […] (C) Dependence of breast cancer cell lines on non-MYST KATs (EP300, CREBBP), MYST KATs (KAT6A, KAT6B, KAT7, KAT8, KAT5), and a MYST KAT complex member (BRPF1) derived from on DepMap CRISPR screening data. BT-549 is highlighted in orange. Lower CERES score indicates a greater dependence of the cell line on the specified gene. […] Data is representiative of n=2 biological replicates.\n(0.01, 0.1, 1, 10, 100 μM) for 48 hours and analyzed by sulforhodamine B assay for growth inhibition as previously described.12-14 o validate the NCI-60 relative activity trends using an orthogonal method, we […]\n0.94, 0.47, 0.23, 0 μM) for 96 hours. Experiments were performed in quadruplicate, and cell viability was measured using CellTiter-Glo® Luminescent Cell Viability Assay (Promega, G7572) according to the manufacturer's instructions. Luminescence signals were recorded on a BioTek Synergy 2 plate reader, and results were normalized to vehicle-treated controls (set to 100%). Half-maximal inhibition values (IC₅₀) were determined from nonlinear regression analysis of dose-response curves using GraphPad Prism 9. […]"}, "[6]": {"biological_target": "KAT7 (Homo sapiens, UniProt O95251)", "sequence (O95251 whole entry)": "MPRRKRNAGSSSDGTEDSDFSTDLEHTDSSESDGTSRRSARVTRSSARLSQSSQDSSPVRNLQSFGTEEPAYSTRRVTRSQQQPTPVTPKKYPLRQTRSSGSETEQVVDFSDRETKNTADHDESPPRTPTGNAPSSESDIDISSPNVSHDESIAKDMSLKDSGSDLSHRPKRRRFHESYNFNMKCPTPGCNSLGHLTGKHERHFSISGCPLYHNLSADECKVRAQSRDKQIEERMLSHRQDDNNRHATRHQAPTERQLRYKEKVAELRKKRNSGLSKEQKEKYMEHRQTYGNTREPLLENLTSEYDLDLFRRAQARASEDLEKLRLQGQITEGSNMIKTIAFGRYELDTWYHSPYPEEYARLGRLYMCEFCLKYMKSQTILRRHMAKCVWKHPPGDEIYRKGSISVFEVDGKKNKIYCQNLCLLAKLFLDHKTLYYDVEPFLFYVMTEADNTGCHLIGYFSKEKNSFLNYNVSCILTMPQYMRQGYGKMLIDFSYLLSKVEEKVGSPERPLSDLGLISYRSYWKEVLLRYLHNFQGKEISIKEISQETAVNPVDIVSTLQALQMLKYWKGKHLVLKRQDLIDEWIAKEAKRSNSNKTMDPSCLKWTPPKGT", "test": "Competitive chemoproteomic profiling (H3K14-CoA affinity capture, western blot and LC-MS/MS)", "details": "0.1 μM, HeLa nuclear extracts"}, "[7]": {"details": "Homo sapiens, MCF7, MCF-7 cells, 24 h"}, "[8]": {"details": "KAT marker KAT7, PF-9363 0.1 v 30"}, "[9]": {"details": "KAT marker KAT7, PF-9363 (0.1 mM)"}, "[10]": {"details": "KAT marker KAT7, PF-9363 (30 mM)"}}, "note": "pIC50: −log10 of the molar value. Where “and” joins values, the source holds several entries; their conditions need not be identical. Equal values may be shown once.", "data": [{"smiles": "COc1cccc(OC)c1S(=O)(=O)Nc1noc2cc(Cn3cccn3)cc(OC)c12", "note": "[PF-9363]", "values": [{"measurement": "competition of capture of NAT10, ESCO1, KAT2B (other clusters)", "setting": "[1]; 0, 0.1, 1, 10 μM", "value": "relatively insensitive"}, {"measurement": "Log2FC PF9363-100nM / PF9363-0nM", "setting": "[1]; protein BLM (P54132)", "value": 0.02}, {"measurement": "Log2FC PF9363-1000nM / PF9363-0nM", "setting": "[1]; protein BLM (P54132)", "value": 0.03}, {"measurement": "Log2FC PF9363-10000nM / PF9363-0nM", "setting": "[1]; protein BLM (P54132)", "value": 0.05}, {"measurement": "concentration at which BRPF3 capture is competed", "setting": "[1]; protein BRPF3", "value": 10, "unit": "µM"}, {"measurement": "Log2FC PF9363-100nM / PF9363-0nM", "setting": "[1]; protein MKI67 (P46013)", "value": -0.01}, {"measurement": "Log2FC PF9363-1000nM / PF9363-0nM", "setting": "[1]; protein MKI67 (P46013)", "value": -0.01}, {"measurement": "Log2FC PF9363-10000nM / PF9363-0nM", "setting": "[1]; protein MKI67 (P46013)", "value": 0.02}, {"measurement": "Log2FC PF9363-100nM / PF9363-0nM", "setting": "[1]; protein NUMA1 (Q14980)", "value": 0.02}, {"measurement": "Log2FC PF9363-1000nM / PF9363-0nM", "setting": "[1]; protein NUMA1 (Q14980)", "value": 0.05}, {"measurement": "Log2FC PF9363-10000nM / PF9363-0nM", "setting": "[1]; protein NUMA1 (Q14980)", "value": 0.06}, {"measurement": "Log2FC PF9363-100nM / PF9363-0nM", "setting": "[1]; protein TRRAP (Q9Y4A5)", "value": -0.05}, {"measurement": "Log2FC PF9363-1000nM / PF9363-0nM", "setting": "[1]; protein TRRAP (Q9Y4A5)", "value": -0.12}, {"measurement": "Log2FC PF9363-10000nM / PF9363-0nM", "setting": "[1]; protein TRRAP (Q9Y4A5)", "value": -0.22}, {"measurement": "pIC50", "setting": "[2]; [7]", "value": "~6.00"}, {"measurement": "Fold-change 0.1 v 30, H3_9_17 K9me1K14ac", "setting": "[2]; [8]", "value": 5.55}, {"measurement": "Fold-change 0.1 v 30, H3_9_17 K9me2K14ac", "setting": "[2]; [8]", "value": 4.54}, {"measurement": "Fold-change 0.1 v 30, H3_9_17 K14ac", "setting": "[2]; [8]", "value": 4.58}, {"measurement": "Average ratio, H3_9_17 K9me1K14ac", "setting": "[2]; [9]", "value": 0.0218}, {"measurement": "Average ratio, H3_9_17 K9me2K14ac", "setting": "[2]; [9]", "value": 0.1048}, {"measurement": "Average ratio, H3_9_17 K14ac", "setting": "[2]; [9]", "value": 0.0358}, {"measurement": "Average ratio, H3_9_17 K9me1K14ac", "setting": "[2]; [10]", "value": 0.0039}, {"measurement": "Average ratio, H3_9_17 K9me2K14ac", "setting": "[2]; [10]", "value": 0.0231}, {"measurement": "Average ratio, H3_9_17 K14ac", "setting": "[2]; [10]", "value": 0.0078}, {"measurement": "Ratio, H3_9_17 K9me1K14ac", "setting": "[2]; KAT marker KAT7, dose 0.1", "value": "0.01996 and 0.02377 and 0.02171"}, {"measurement": "Ratio, H3_9_17 K9me2K14ac", "setting": "[2]; KAT marker KAT7, dose 0.1", "value": "0.087 and 0.123 and 0.1045"}, {"measurement": "Ratio, H3_9_17 K14ac", "setting": "[2]; KAT marker KAT7, dose 0.1", "value": "0.03031 and 0.04488 and 0.03226"}, {"measurement": "Ratio, H3_9_17 K9me1K14ac", "setting": "[2]; KAT marker KAT7, dose 1", "value": "0.01133 and 0.012 and 0.01281"}, {"measurement": "Ratio, H3_9_17 K9me2K14ac", "setting": "[2]; KAT marker KAT7, dose 1", "value": "0.0545 and 0.07102 and 0.04882"}, {"measurement": "Ratio, H3_9_17 K14ac", "setting": "[2]; KAT marker KAT7, dose 1", "value": "0.02498 and 0.02856 and 0.02464"}, {"measurement": "Ratio, H3_9_17 K9me1K14ac", "setting": "[2]; KAT marker KAT7, dose 10", "value": "0.004127 and 0.006046 and 0.005821"}, {"measurement": "Ratio, H3_9_17 K9me2K14ac", "setting": "[2]; KAT marker KAT7, dose 10", "value": "0.02988 and 0.02204 and 0.03567"}, {"measurement": "Ratio, H3_9_17 K14ac", "setting": "[2]; KAT marker KAT7, dose 10", "value": "0.01535 and 0.01122 and 0.01409"}, {"measurement": "Ratio, H3_9_17 K9me1K14ac", "setting": "[2]; KAT marker KAT7, dose 30", "value": "0.004797 and 0.003603 and 0.003398"}, {"measurement": "Ratio, H3_9_17 K9me2K14ac", "setting": "[2]; KAT marker KAT7, dose 30", "value": "0.01983 and 0.02491 and 0.02445"}, {"measurement": "Ratio, H3_9_17 K14ac", "setting": "[2]; KAT marker KAT7, dose 30", "value": "0.006424 and 0.008372 and 0.008647"}, {"measurement": "pIC50", "setting": "[3]; [7]", "value": "~5.00"}, {"measurement": "Ratio, H4_4_17 K16ac", "setting": "[3]; KAT marker KAT8, PF-9363 0.1", "value": "0.3188 and 0.3244 and 0.3222"}, {"measurement": "Ratio, H4_4_17 K16ac", "setting": "[3]; KAT marker KAT8, PF-9363 1", "value": "0.2629 and 0.2802 and 0.2713"}, {"measurement": "Ratio, H4_4_17 K16ac", "setting": "[3]; KAT marker KAT8, PF-9363 10", "value": "0.1497 and 0 and 0.16"}, {"measurement": "Ratio, H4_4_17 K16ac", "setting": "[3]; KAT marker KAT8, PF-9363 30", "value": "0 (2×) and 0.08259"}, {"measurement": "Average ratio, H4_4_17 K16ac", "setting": "[3]; KAT marker KAT8, PF-9363 (0.1 mM)", "value": 0.3218}, {"measurement": "Average ratio, H4_4_17 K16ac", "setting": "[3]; KAT marker KAT8, PF-9363 (30 mM)", "value": 0.0275}, {"measurement": "Fold-change 0.1 v 30, H4_4_17 K16ac", "setting": "[3]; KAT marker KAT8, average ratio 0.1 v 30", "value": 11.69}, {"measurement": "GI50", "setting": "[4]; Homo sapiens, most cell lines of the NCI-60 panel, read-out: half-maximal growth inhibition (GI50)", "value": "10 to 100", "unit": "µM"}, {"measurement": "tolerance of concentrations expected to primarily effect KAT6 and KAT7", "setting": "[4]; ≤ 1 μM", "value": "generally well-tolerated"}, {"measurement": "growth inhibition compared with CPI-1612", "setting": "[5]", "value": "greater growth inhibition"}, {"measurement": "co-competition of KAT7 JADE complex members", "setting": "[6]", "value": "caused co-competition of JADE2, MEAF6, and ING4/5"}]}]}
